Source: ChEMBL document CHEMBL2311407, “Design and synthesis of diazatricyclodecane agonists of the G-protein-coupled receptor 119” (J Med Chem, 2013)
≈ marks a conversion by molar mass, not a printed value.

Columns and labels:
[1] = Aqueous solubility of the compound in PBS at pH 1.2; assay type: physicochemical
[2] = Aqueous solubility of the compound in PBS at pH 7.4; assay type: physicochemical
[3] = Apparent intrinsic clearance in human liver microsomes; assay type: ADME, Microsome; settings: read-out: CLH(app)

SMILES: Cc1ncccc1Oc1ncnc(N2C3CC4CC2CC(C3)N4C(=O)OC2(C)CC2)c1C
- solubility [1]: 6800 µg/mL (≈ 15.6 mM)
- solubility [2]: 0.5 µg/mL (≈ 0.00115 mM)

SMILES: Cc1ncccc1Oc1ncnc(N2C3CC4CC2CC(C3)N4C(=O)OCC(C)C)c1C
- CLint scaled [3]: > 30 mL/min/kg
